In US20260337172A1, “AMINOPIPERAZINES WITH BROAD SPECTRUM ANTIMICROBIAL ACTIVITY” (The United States Government as represented by the …, priority 2022, published 2026):
In brackets after ≈: the same amount, converted by molar mass. Like-named read-outs stand apart in the source and are kept apart here.

Test system: C. auris
Assay: minimum inhibitory concentration, C. auris (Table 3)
Assay type: cell-based, Candida auris
Settings: Candidozyma auris
Text: Table 2 and Table 3 below show the minimum inhibitory concentration values for the synthesized compounds as tested on bacterial strains.

[1] = 50% inhibition, first of two values in cell, read-out: minimum inhibitory concentration, C. auris 50% inhib.
[2] = 50% inhibition, second of two values in cell, read-out: minimum inhibitory concentration, C. auris 50% inhib.
[3] = 90% inhibition, first of two values in cell, read-out: minimum inhibitory concentration, C. auris 90% inhib.
[4] = 90% inhibition, second of two values in cell, read-out: minimum inhibitory concentration, C. auris 90% inhib.

Compound	MIC [1] [µg/mL]	MIC [2] [µg/mL]	MIC [3] [µg/mL]	MIC [4] [µg/mL]
C[C@@H]1[C@H](O)[C@@H](C)/C=C/C=C/C=C/C=C/C=C/C=C/C=C/[C@H](O[C@@H]2O[C@H](C)[C@@H](O)[C@H](N)[C@@H]2O)C[C@@H]2O[C@](O)(C[C@@H](O)C[C@@H](O)[C@H](O)CC[C@@H](O)C[C@@H](O)CC(=O)O[C@H]1C)C[C@H](O)[C@H]2C(=O)O [Amphotericin B, reference compound]	1 (≈ 1.08 µM)	1 (≈ 1.08 µM)	1 (≈ 1.08 µM)	1 (≈ 1.08 µM)
CN1CCN(/N=C/c2ccc(Cl)c([N+](=O)[O-])c2)CC1 [Compound 3]	256 (≈ 905 µM)	128 (≈ 453 µM)	256 (≈ 905 µM)	256 (≈ 905 µM)
CN1CCN(/N=C/c2ccc([N+](=O)[O-])cc2)CC1 [Compound 4]	256 (≈ 1030 µM)	256 (≈ 1030 µM)	> 256	> 256
COc1ccc(/C=N/N2CCN(C)CC2)c2ccccc12 [Compound 5, (E)-1-(4-methoxynaphthalen-1-yl)-N-(4-methylpiperazin-1-yl)methanimine]	128 (≈ 452 µM)	128 (≈ 452 µM)	256 (≈ 903 µM)	256 (≈ 903 µM)
CN1CCN(/N=C/c2ccc(-c3ccccc3)cc2)CC1 [Compound 17]	64 (≈ 229 µM)	64 (≈ 229 µM)	128 (≈ 458 µM)	128 (≈ 458 µM)
COc1cccc(/C=N/N2CCN(C)CC2)c1O [Compound 20]	128 (≈ 513 µM)	128 (≈ 513 µM)	256 (≈ 1030 µM)	256 (≈ 1030 µM)
